The term Ki denotes a measure of affinity in units of concentration, obtained from inhibition or displacement.

In US9957261B2 (Hoffmann-La Roche Inc., priority 2014, dated 2018) one finds Ki data, which are given here for 23 compounds.

For experiment [1], the target named is rat TAAR1 (Rattus norvegicus (Rat), UniProt Q923Y9). The experiment is described as follows: Radioligand binding assay on rat TAAR1. The settings on record: rat TAAR1, membranes of stably transfected HEK-293 cells; second value of mouse/rat pair. As for the experimental part: (§1) Construction of TAAR Expression Plasmids and Stably Transfected Cell Lines
Chain of rat TAAR1 (Q923Y9 whole entry): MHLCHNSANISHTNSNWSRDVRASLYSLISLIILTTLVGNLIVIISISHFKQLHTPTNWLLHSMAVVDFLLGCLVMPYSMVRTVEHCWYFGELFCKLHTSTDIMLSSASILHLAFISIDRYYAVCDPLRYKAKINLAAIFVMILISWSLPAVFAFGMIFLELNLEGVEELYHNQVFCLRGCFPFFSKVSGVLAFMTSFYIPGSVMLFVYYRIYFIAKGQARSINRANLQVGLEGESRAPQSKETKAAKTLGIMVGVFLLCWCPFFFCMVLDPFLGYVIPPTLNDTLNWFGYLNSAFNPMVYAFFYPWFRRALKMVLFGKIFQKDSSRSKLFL
(§2) For the construction of expression plasmids the coding sequences of human, rat and mouse TAAR 1 were amplified from genomic DNA essentially as described by Lindemann et al.. The Expand High Fidelity PCR System (Roche Diagnostics) was used with 1.5 mM Mg^2+ and purified PCR products were cloned into pCR2.1-TOPO cloning vector (Invitrogen) following the instructions of the manufacturer. PCR products were subcloned into the pIRESneo2 vector (BD Clontech, Palo Alto, Calif.), and expression vectors were sequence verified before introduction in cell lines.
(§3) HEK293 cells (ATCC # CRL-1573) were cultured essentially as described by Lindemann et al. (2005). For the generation of stably transfected cell lines HEK293 cells were transfected with the pIRESneo2 expression plasmids containing the TAAR coding sequences (described above) with Lipofectamine 2000 (Invitrogen) according to the instructions of the manufacturer, and 24 hrs post transfection the culture medium was supplemented with 1 mg/ml G418 (Sigma, Buchs, Switzerland). After a culture period of about 10 d clones were isolated, expanded and tested for responsiveness to trace amines (all compounds purchased from Sigma) with the cAMP Biotrak Enzyme immunoassay (EIA) System (Amersham) following the non-acetylation EIA procedure provided by the manufacturer.
Radioligand Binding Assay on Rat TAAR1
(§4) Membrane Preparation and Radioligand Binding.
(§5) HEK-293 cells stably expressing rat TAAR1 were maintained at 37° C. and 5% CO2 in DMEM high glucose medium, containing fetal calf serum (10%, heat inactivated for 30 min at 56° C.), penicillin/streptomycin (1%), and 375 μg/ml geneticin (Gibco). Cells were released from culture flasks using trypsin/EDTA, harvested, washed twice with ice-cold PBS (without Ca^2+ and Mg^2+), pelleted at 1′000 rpm for 5 min at 4° C., frozen and stored at −80° C. Frozen pellets were suspended in 20 ml HEPES-NaOH (20 mM, pH 7.4) containing 10 mM EDTA and homogenized with a Polytron (PT 6000, Kinematica) at 14,000 rpm for 20 s. The homogenate was centrifuged at 48,000×g for 30 min at 4° C. Subsequently, the supernatant was removed and discarded, and the pellet resuspended in 20 ml HEPES-NaOH (20 mM, pH 7.4) containing 0.1 mM EDTA using the Polytron (20 s at 14,000 rpm). This procedure was repeated and the final pellet resuspended in HEPES-NaOH containing 0.1 mM EDTA and homogenized using the Polytron. Typically, aliquots of 2 ml membrane portions were stored at −80° C. With each new membrane batch the dissociation constant (Kd) was determined via a saturation curve. […] Nonspecific binding was defined as the amount of [H]—(S)-4-[(ethyl-phenyl-amino)-methyl]-4,5-dihydro-oxazol-2-ylamine bound in the presence of 10 μM unlabeled ligand. All compounds were tested at a broad range of concentrations (10 pM to 10 μM) in duplicates. […] The 96 deep well plates were incubated for 1 hr at 4° C. Incubations were terminated by rapid filtration through Unifilter-96 plates (Packard Instrument Company) and glass filters GF/C (Perkin Elmer) presoaked for 1 hr in polyethylenimine (0.3%) and washed 3 times with 1 ml of cold binding buffer. After addition of 45 μl of Microscint 40 (PerkinElmer) the Unifilter-96 plate was sealed and after 1 hr the radioactivity counted using a TopCount Microplate Scintillation Counter (Packard Instrument Company).

Experiment [2] deals with mouse TAAR1 (Mus musculus (Mouse), UniProt Q923Y8). In words: Radioligand binding assay on mouse TAAR1. The note with it: mouse TAAR1, membranes of stably transfected HEK-293 cells; first value of mouse/rat pair. The protocol: as §1, §2, §3
Chain of mouse TAAR1 (Q923Y8 whole entry): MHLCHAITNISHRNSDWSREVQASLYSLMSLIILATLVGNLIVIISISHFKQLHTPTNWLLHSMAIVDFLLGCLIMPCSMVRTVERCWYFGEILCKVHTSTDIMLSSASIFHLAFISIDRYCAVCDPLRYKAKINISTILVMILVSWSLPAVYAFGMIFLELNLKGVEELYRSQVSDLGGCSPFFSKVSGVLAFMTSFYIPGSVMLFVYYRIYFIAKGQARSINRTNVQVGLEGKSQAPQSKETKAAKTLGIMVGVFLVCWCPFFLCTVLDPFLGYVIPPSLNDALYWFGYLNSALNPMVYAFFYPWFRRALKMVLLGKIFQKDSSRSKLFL
Radioligand Binding Assay on Mouse TAAR1
as §4
as §5, with “expressing mouse” for “expressing rat”, “of ^3[H]—(S)-4-[(ethyl-phenyl-amino)-methyl]-4,5-dihydro-oxazol-2-ylamine” for “of [H]—(S)-4-[(ethyl-phenyl-amino)-methyl]-4,5-dihydro-oxazol-2-ylamine”

As to `N[C@H]1CCc2cc(NC(=O)Nc3ccc(C4CC4)cc3)ccc2C1` [Example 72, (S)-1-(6-Amino-5,6,7,8-tetrahydronaphthalen-2-yl)-3-(4-cyclopropylphenyl)urea], the Ki in experiment [1] amounted to 0.0009 µM; in experiment [2] it was 0.001 µM.
The matching figures for `Cc1cc(C(=O)Nc2ccc3c(c2)CC[C@@H](N)C3)nc(C(F)(F)F)n1` [Example 6, (R)—N-(6-Amino-5,6,7,8-tetrahydronaphthalen-2-yl)-6-methyl-2-(trifluoromethyl)-pyrimidine-4-carboxamide]: 0.0544 µM and 0.232 µM.
The like results for `N[C@H]1CCc2cc(Nc3cccc(OC(F)(F)F)c3)ccc2C1` [Example 61, (S)—N6-(3-(Trifluoromethoxy)phenyl)-1,2,3,4-tetrahydronaphthalene-2,6-diamine] were, in that order, 0.0049 µM and 0.0071 µM.
The matching figures for `COc1cccc(NC(=O)Nc2ccc3c(c2)CC[C@H](N)C3)c1` [Example 67, (S)-1-(6-Amino-5,6,7,8-tetrahydronaphthalen-2-yl)-3-(3-methoxyphenyl)urea]: 0.0044 µM and 0.0075 µM.
As to `CCc1ccc(NC(=O)Nc2ccc3c(c2)CC[C@H](N)C3)cc1` [Example 64, (S)-1-(6-Amino-5,6,7,8-tetrahydronaphthalen-2-yl)-3-(4-ethylphenyl)urea], the inhibitory constant (Ki) in experiment [1] stood at 0.0026 µM; in experiment [2], 0.003 µM.
The matching figures for `N[C@H]1CCc2cc(NC(=O)NCc3ccc(Cl)cc3)ccc2C1` [Example 69, (S)-1-(6-Amino-5,6,7,8-tetrahydronaphthalen-2-yl)-3-(4-chlorobenzyl)urea]: 0.0085 µM and 0.0029 µM.
As for `N[C@@H]1CCc2cc(C(=O)Nc3cccc(OC(F)(F)F)c3)ccc2C1` [Example 78, (R)-6-Amino-N-(3-(trifluoromethoxy)phenyl)-5,6,7,8-tetrahydronaphthalene-2-carboxamide], the inhibitory constant (Ki) in experiment [1] amounted to 0.0044 µM; in experiment [2], 0.0073 µM.
The matching figures for `CCc1ccc(NC(=O)c2ccc3c(c2)CCC(N)C3)cc1` (stereo not shown) [Example 56, 6-Amino-N-(4-ethylphenyl)-5,6,7,8-tetrahydronaphthalene-2-carboxamide]: 0.0456 µM and 0.0155 µM.
The like results for `N[C@H]1CCc2cc(Nc3ccc(C(F)(F)F)cn3)ccc2C1` [Example 38, (S)—N6-(5-(Trifluoromethyl)pyridin-2-yl)-1,2,3,4-tetrahydronaphthalene-2,6-diamine] were, in that order, 0.0021 µM and 0.0032 µM.
The like results for `N[C@H]1COc2cc(NC(=O)c3cc(Cl)nc(Cl)c3)ccc2C1` [Example 91, (R)—N-(3-Aminochroman-7-yl)-2,6-dichloroisonicotinamide] were, in that order, 0.0077 µM and 0.0035 µM.
As to `NC1CCc2cc(C(=O)Nc3cnc(C4CC4)nc3)ccc2C1` (stereo not shown) [Example 32, 6-Amino-N-(2-cyclopropylpyrimidin-5-yl)-5,6,7,8-tetrahydronaphthalene-2-carboxamide], the inhibitory constant (Ki) came to 0.309 µM in experiment [1] and 0.105 µM in experiment [2].
The matching figures for `N[C@H]1CCc2cc(NC(=O)NCc3ccc(Cl)cn3)ccc2C1` [Example 62, (S)-1-(6-Amino-5,6,7,8-tetrahydronaphthalen-2-yl)-3-((5-chloropyridin-2-yl)methyl)urea]: 0.095 µM and 0.0355 µM.
On to `CCCc1cc(C(=O)Nc2ccc3c(c2)CCC(N)C3)nn1CC(F)F` (stereo not shown) [Example 3, N-(6-Amino-5,6,7,8-tetrahydronaphthalen-2-yl)-1-(2,2-difluoroethyl)-5-propyl-1H-pyrazole-3-carboxamide], for which the Ki in experiment [1] was determined as 0.0035 µM; in experiment [2] it was 0.0132 µM.
The matching figures for `N[C@H]1CCc2cc(NC(=O)Nc3ccc(OC(F)(F)F)cc3)ccc2C1` [Example 65, (S)-1-(6-Amino-5,6,7,8-tetrahydronaphthalen-2-yl)-3-(4-(trifluoromethoxy)phenyl)urea]: 0.0003 µM and 0.0012 µM.
The matching figures for `N[C@H]1CCc2cc(C(=O)Nc3cccc(OC(F)(F)F)c3)ccc2C1` [Example 79, (S)-6-Amino-N-(3-(trifluoromethoxy)phenyl)-5,6,7,8-tetrahydronaphthalene-2-carboxamide]: 0.0009 µM and 0.0008 µM.
The like results for `Cc1ccc(-n2cc(C(=O)Nc3ccc4c(c3)CC[C@H](N)C4)cn2)cc1` [Example 27, (S)—N-(6-Amino-5,6,7,8-tetrahydronaphthalen-2-yl)-1-p-tolyl-1H-pyrazole-4-carboxamide] were, in that order, 0.0037 µM and 0.0028 µM.
For `CCCc1cc(C(=O)Nc2ccc3c(c2)OC[C@@H](N)C3)nn1CC(F)F` [Example 11, (S)—N-(3-Aminochroman-7-yl)-1-(2,2-difluoroethyl)-5-propyl-1H-pyrazole-3-carboxamide], the inhibitory constant (Ki) was 0.0096 µM in experiment [1] and 0.187 µM in experiment [2].
The like results for `N#Cc1ccc(NC(=O)c2ccc3c(c2)CCC(N)C3)cc1` (stereo not shown) [Example 70] were, in that order, 0.0032 µM and 0.0044 µM.
The like results for `N[C@H]1CCc2cc(Nc3ncc(C(F)(F)F)cn3)ccc2C1` [Example 23, (S)—N6-(5-(Trifluoromethyl)pyrimidin-2-yl)-1,2,3,4-tetrahydronaphthalene-2,6-diamine] were, in that order, 0.0068 µM and 0.0213 µM.
In the case of `NC1CCc2cc(C(=O)Nc3ccc(F)cc3)ccc2C1` (stereo not shown) [Example 58, 6-Amino-N-(4-fluorophenyl)-5,6,7,8-tetrahydronaphthalene-2-carboxamide], the figures for the inhibitory constant (Ki) in experiment [1] and in experiment [2] were 0.0964 µM and 0.0569 µM, respectively.
Take `N[C@H]1CCc2cc(Nc3ccc(C4CC4)cc3)ccc2C1` [Example 73, (S)—N6-(4-Cyclopropylphenyl)-1,2,3,4-tetrahydronaphthalene-2,6-diamine]: the Ki in experiment [1] was found to be 0.0081 µM; in experiment [2] it was 0.01 µM.
On to `N#Cc1ccc(C(=O)Nc2ccc3c(c2)OC[C@H](N)C3)cc1F` [Example 86, (R)—N-(3-Aminochroman-7-yl)-4-cyano-3-fluorobenzamide], for which the inhibition constant (Ki) in experiment [1] came out at 0.0044 µM; in experiment [2] it was 0.0026 µM.
The like results for `N[C@@H]1CCc2cc(NC(=O)c3ccccc3Cl)ccc2C1` [Example 15, (R)—N-(6-Amino-5,6,7,8-tetrahydronaphthalen-2-yl)-2-chlorobenzamide] were, in that order, 0.6 µM and 1.97 µM.
